Experimental findings from patent US8008340B2, “3-arylthioindole-2-carboxamide derivatives and analogs thereof as inhibitors of casein kinase I” (Aventis Pharmaceuticals Inc., priority 2004, dated 2011) are described below.

Assay [1] deals with T1, casein kinase 1ε (Homo sapiens, UniProt P49674).
T1 construct: made in house
Briefly: Casein Kinase Epsilon 33P-ATP Filter Plate Assay. Type of assay: biochemical. Particulars: phosphorylation of casein, 33P-ATP with 10 μM cold ATP, 2 hours at room temperature; * denotes average of two or more determinations; read-out: CKIε Inhibition IC50. The procedure:
Casein Kinase Epsilon ^33P-ATP Filter Plate Assay for Screening CK1ε Inhibitors Purpose: This assay measures the effect of compounds to inhibit the phosphorylation of the substrate casein by the enzyme casein kinase 1ε using an in vitro ^33P-ATP filtration assay. Compounds are tested at five concentrations in duplicate in order to generate IC50 values or % inhibition at a 10 micromolar concentration that are summarized in Table 4.
Enzyme: • Casein Kinase 1ε final concentration 0.58 mg/ml obtained from fermentation and purification processes as are well known to one skilled in the art. The above are stored as 100 μL aliquots at minus 80° C.
Compounds: • Compounds for testing are supplied as frozen 10 mM compound stock dissolved in 100% DMSO. Assay Conditions:
Final total assay volume per well is equal to 50 μL made up as follows: • 5 μL of diluted compound stock (10, 1, 0.1, 0.01 or 0.001 μM), • 5 μL of dephosphorylated casein final concentration 0.2 μg/μL, • 20 μL of CK1ε final concentration 3 ng/μL, and • 20 μL of γ-^33P-ATP final concentration 0.02 μCi/μL mixed with cold ATP (10 μM final). Methodology: • 1. 500 mL of fresh assay buffer is made: 50 mM Tris pH 7.5, 10 mM MgCl2, 2 mM DTT and 1 mM EGTA • 2. Compounds to be evaluated are obtained as 10 μL of 10 mM stock dissolved in 100% DMSO. Using a Biomek 2000 liquid handling robot, serial dilutions are made to yield 10, 1, 0.1, 0.01 and 0.001 μM final compound dilutions added as 5 μL additions to Falcon U bottom plates. Typically 8 compounds are tested per 96 well plate with column 1 and 12 serving as control wells. A routine screening assay will consist of 32 compounds, which equals 4 assay plates. • 3. Assay plate maps are set up according to the following pattern CKlePlateMap.xls
• 4. Once 5 μL of compound has been added as indicated, 5 μL of dephosphorylated casein (dissolved in distilled H2O)(0.2 μg/μL) and 20 μL CK1ε (3 ng/μL) are added to the appropriate wells. • 5. Finally 20 μL γ-^33P-ATP (0.02 μCi/μL)/10 μM cold ATP are added (equals approximately 2×10^6 CPM per well). • 6. The Falcon U-Bottom assay plate containing the above 50 μL reaction volume is vortexed and then incubated at room temperature for 2 hours. • 7. At the end of 2 hours, the reaction is stopped by the addition of 65 μL of ice cold 2 mM cold ATP (made up in assay buffer) to the assay plates using a Beckman Multimek • 8. At the same time 25 μL 100% ice cold TCA made up in distilled H2O is added to a matching number of Millipore MAPH filter plates. • 9. Using a handheld 8-channel pipettor, 100 μL of the reaction mixture is transferred from the Falcon U-Bottom Plate to the Millipore MAPH filter plates presoaked with TCA. • 10. The Millipore MAPH filter plates are mixed gently and allowed to sit at room temperature for at least 30 minutes to precipitate the proteins. • 11. After 30 minutes the filter plates are placed on a Millipore vacuum manifold and filtered at no more than 8 mm Hg as the MAPH filters tend to “air lock” at higher vacuum settings. • 12. The filter plates are sequentially washed and filtered with 2×150 μL 20% TCA, 2×150 μL 10% TCA and 2×150 μL 5% TCA (total of 6 washes per plate/900 μL per well). • 13. Plates are allowed to dry overnight at room temperature. The next day 40 μL Packard Microscint-20 Scintillation Fluid is added per well using a Titertek Multidrop dispenser; the plates are sealed and counted for 2 minutes/well in a Packard Topcount NXT Scintillation Counter (CPM values/well are captured).
Calculation: • 1. Counts Per Minute (CPM) data is captured and imported into a proprietary data calculation and archiving database (Activity Base by IDBS version 5.0). • 2. Column 1 for each plate reflects total phosphorylation activity of the enzyme in the absence of any inhibiting compound and thus represents 100%. Column 12 reflects any nonspecific phosphorylation/retained radioactivity activity in the absence of inhibiting compound and enzyme. […]

The test system of assay [2] is Mper1-luc Rat-1 fibroblasts (P2C4). Briefly: Cellular Circadian Assay (Mper1-luc reporter, period lengthening). Type of assay: cell-based. The note with it: effective micromolar concentration that induced a 1 hour lengthening of period. From the text:
U.S. Pat. No. 6,555,328 B1 discloses screening methods in cells to identify compounds that alter circadian rhythms based on a test compound altering the ability of human casein kinase 1ε and/or human casein kinase 1δ to phosphorylate the human clock proteins hPER1, hPER2 and hPER3. For example, HEK293T cells are co-transfected with hCKIε and Per1 or Per2. For the purpose of evaluating the relevancy of CKIε inhibition and CKIε inhibitors to circadian biology, a high-throughput cellular assay (33rd Annual Meeting, Soc. for Neurosci., Nov. 8-12, 2003, Abstract numbers 284.1, 284.2, and 284.3) was developed in which circadian rhythm could be monitored in a routine manner. The assay consists of Rat-1 fibroblasts stably expressing an Mper1-luc construct, thus enabling the determination of the rhythmic activation of the Mper1 promoter in living cells by repeatedly estimating luciferase activity by monitoring light-output over several days. The repeated measure format of the assay permits accurate and reproducible assessment of the concentration-dependent effects of CKIε inhibitors on circadian rhythm and provides the nexus for relating CKIε inhibition to circadian period alteration.
Cell culture: Mper1-luc Rat-1 fibroblasts (P2C4) cultures were split every 3-4 days (˜10-20% confluence) onto 150 cm^2 vented polystyrene tissue culture flasks (Falcon #35-5001) and maintained in growth media [EMEM (Cellgro #10-010-CV); 10% fetal bovine serum (FBS; Gibco #16000-044); and 50 I.U./mL penicillin-streptomycin (Cellgro #30-001-C1)] at 37° C. and 5% CO2. […] Zeocin-resistant stable transfectants were assessed for reporter expression by supplementing growth media with 100 μM luciferin (Promega #E1603) and assaying luciferase activity on a TopCount scintillation counter (Packard Model #C384V00). Rat-1 clones expressing both Zeocin-resistance and mPer1-driven luciferase activity were synchronized by 50% horse serum [HS (Gibco #16050-122)] serum shock and assessed for circadian reporter activity. […]

For orientation: IC50 means the concentration at which inhibition is half-maximal.

T1 sequence (P49674 whole entry): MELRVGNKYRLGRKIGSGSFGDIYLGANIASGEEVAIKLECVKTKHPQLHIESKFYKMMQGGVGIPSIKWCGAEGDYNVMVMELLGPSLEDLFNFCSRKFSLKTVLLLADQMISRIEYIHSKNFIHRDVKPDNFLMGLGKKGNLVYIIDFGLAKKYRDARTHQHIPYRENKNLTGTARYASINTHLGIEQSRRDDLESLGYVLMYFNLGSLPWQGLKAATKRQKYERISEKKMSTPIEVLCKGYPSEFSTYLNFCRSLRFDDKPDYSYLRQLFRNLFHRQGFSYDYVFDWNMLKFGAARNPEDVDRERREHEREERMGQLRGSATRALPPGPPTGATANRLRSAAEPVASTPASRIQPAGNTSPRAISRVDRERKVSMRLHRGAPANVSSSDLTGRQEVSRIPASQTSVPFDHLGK

On to `NC(=O)c1[nH]c2ccc(Br)cc2c1Sc1ccccc1N` [Ig, 3-(2-Amino-phenylsulfanyl)-5-bromo-1H-indole-2-carboxylic acid amide], for which, in assay [1], the IC50 worked out at 120 nM. Also, the “Cell Assay ECΔτ+1h” value in assay [2] was found to be 1.6 µM.
